Measured values as given in patent publication US7754709B2 (Solvay Pharmaceuticals BV, priority 2003, dated 2010).

Assays:
Assay type in all cases: cell-based
[1] = biological target: T1, 17β-hydroxysteroid dehydrogenase type 1 (Homo sapiens, UniProt P14061); test: Inhibition of 17β-HSD type 1 in MCF-7 cells stably expressing the isoenzyme (HPLC, tritium labeled estrone); conditions: 2 nM estrone, read-out: % Inhibition of the 17β-HSD enzyme type 1 (HSD1); for inhibition at 1 µM: MCF7, 1 μM compound; for inhibition at 10 µM: MCF7, 10 μM compound
T1 construct: expressed in transfected cells; host or cells: MCF-7
T1 sequence (P14061 1-328): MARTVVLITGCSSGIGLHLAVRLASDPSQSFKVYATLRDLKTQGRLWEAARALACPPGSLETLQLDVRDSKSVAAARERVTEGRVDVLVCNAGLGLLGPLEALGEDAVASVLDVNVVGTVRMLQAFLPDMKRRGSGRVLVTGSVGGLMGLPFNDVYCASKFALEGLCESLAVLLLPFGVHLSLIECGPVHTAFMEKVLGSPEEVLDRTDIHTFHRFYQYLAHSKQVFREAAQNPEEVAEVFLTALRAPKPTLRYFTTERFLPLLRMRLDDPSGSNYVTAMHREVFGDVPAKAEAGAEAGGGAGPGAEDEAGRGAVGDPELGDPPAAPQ
Excerpt: (§1) Biological Testing Materials and Methods 1. Inhibition of the 17β-hydroxysteroid dehydrogenase type 1, type 2 and type 3 enzyme
(§2) The compounds were screened in respect of 17β-HSD enzyme activity in vitro on established M CF-7 cell lines, each stably expressing one of the respective 17β-HSD isoenzymes. The interconversion of substrate by each isoenzyme and the 17β-HSD inhibiting activity of chemical compounds in these cell lines were detected by HPLC system.
(§3) Varying amounts of the test compounds were incubated in the growth medium of the 17β-HSD expressing cells together tritium labeled substrate (2 nM estrone for 17β-HSD type 1; 2 nM estradiol for 17β-HSD type 2; and 2 nM androstenedione for 17β-HSD type 3). The medium samples were removed after exact incubation time and the reaction is stopped by trichloroacetic acid (TCA). The samples were analyzed by HPLC-coupled flow scintillation analysis.
(§4) For each enzyme type, the HSD-inhibiting activity of an individual test compound was calculated by comparing the conversion of a control sample without any test compound (referred to as “Negative Control”) to the (reduced) conversion of the test sample containing the particular compound to be tested (referred to as “Test Sample”).
(§5) Two concentrations of each compound were used. The number of the compound refers to the numbers indicated in the Experimental Section.

[2] = biological target: T2, 17β-hydroxysteroid dehydrogenase type 3 (Homo sapiens, UniProt P37058); test: Inhibition of 17β-HSD type 3 in MCF-7 cells stably expressing the isoenzyme (HPLC, tritium labeled androstenedione); conditions: 2 nM androstenedione, read-out: % Inhibition of the 17β-HSD enzyme type 3 (HSD3); for inhibition at 1 µM: MCF7, 1 μM compound; for inhibition at 10 µM: MCF7, 10 μM compound
T2 construct: expressed in transfected cells; host or cells: MCF-7
T2 sequence (P37058 1-310): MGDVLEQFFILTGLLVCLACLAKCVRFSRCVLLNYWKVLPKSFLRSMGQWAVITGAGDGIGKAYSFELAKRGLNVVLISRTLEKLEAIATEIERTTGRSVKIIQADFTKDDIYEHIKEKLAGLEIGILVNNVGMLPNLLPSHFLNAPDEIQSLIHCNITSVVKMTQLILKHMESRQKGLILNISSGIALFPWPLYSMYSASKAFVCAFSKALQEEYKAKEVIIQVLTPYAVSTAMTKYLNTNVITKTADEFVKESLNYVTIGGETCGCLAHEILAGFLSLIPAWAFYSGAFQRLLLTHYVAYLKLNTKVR
Excerpt: as §1, §2, §3, §4, §5

[3] = biological target: T3, 17β-hydroxysteroid dehydrogenase type 2 (Homo sapiens, UniProt P37059); test: Inhibition of 17β-HSD type 2 in MCF-7 cells stably expressing the isoenzyme (HPLC, tritium labeled estradiol); conditions: 2 nM estradiol, read-out: % Inhibition of the 17β-HSD enzyme type 2 (HSD2); for inhibition at 1 µM: MCF7, 1 μM compound; for inhibition at 10 µM: MCF7, 10 μM compound
T3 construct: expressed in transfected cells; host or cells: MCF-7
T3 sequence (P37059 1-387): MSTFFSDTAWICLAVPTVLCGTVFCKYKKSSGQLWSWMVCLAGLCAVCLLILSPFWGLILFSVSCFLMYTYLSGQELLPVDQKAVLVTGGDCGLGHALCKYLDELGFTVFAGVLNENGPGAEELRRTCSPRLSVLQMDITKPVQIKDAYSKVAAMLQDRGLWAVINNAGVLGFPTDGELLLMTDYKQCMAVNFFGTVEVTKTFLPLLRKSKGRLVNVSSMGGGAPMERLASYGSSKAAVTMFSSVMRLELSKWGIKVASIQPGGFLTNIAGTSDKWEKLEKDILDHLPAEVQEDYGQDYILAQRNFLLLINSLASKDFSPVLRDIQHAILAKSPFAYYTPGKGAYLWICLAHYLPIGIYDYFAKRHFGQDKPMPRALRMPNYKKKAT
Excerpt: as §1, §2, §3, §4, §5

Row | Compound | inhibition at 1 µM [1] | inhibition at 10 µM [1] | inhibition at 1 µM [2] | inhibition at 10 µM [2] | inhibition at 1 µM [3] | inhibition at 10 µM [3]
1 | CCCSC1=C(C=O)CCc2c1sc1nc3n(c(=O)c21)CCC(C(=O)OC)CC3 (stereo not drawn) [Compound 23, 3-Formyl-1,2,7,8,9,10,11,13-octahydro-13-oxo-4-(propylthio)-[l]benzothieno[2′,3′: 4,5] pyrimido[1,2-a]azepine-9-carboxylic acid methyl ester] | 17.4% | 64.7% | 19.5% | 89.5% | 9.7% | 17.7%
2 | O=c1c2c3c(sc2nc2ccccn12)CCCC3 [Compound 25, 1,2,3,4-Tetrahydro-12H-[1]benzothieno[2,3-d]pyrido[1,2-a]pyrimidin-12-one] | 6.2% | 8.7% | -3.2% | 7.9% | 14% | 33.6%
3 | CC1CCc2c(sc3nc4n(c(=O)c23)CCCCC4)C1 (stereo not drawn) [Compound 27, 3-Methyl-2,3,4,7,8,9, 10,11-octahydro-[1]benzothieno[2′,3′: 4,5]pyrimido-[1,2-a]azepin-13(1H)-one] | 11.4% | 25.6% | 22.9% | 24.9% | 5.3% | 3.2%
4 | CC1CCc2c(sc3nc4n(c(=O)c23)CCCCC4)C1=O (stereo not drawn) [Compound 28, 2,3,8,9,10,11-Hexahydro-3-methyl-[1]benzothieno[2′,3′: 4,5]pyrimido[1,2-a]azepin-4,13(1H,7H)-dione] | 14.3% | 15.3% | 7.8% | 9.5% | 18.2% | 18.7%
5 | CC(C)(C)C1CCc2c(sc3nc4n(c(=O)c23)CCCCC4)C1 (stereo not drawn) [Compound 29, 3-t-Butyl-2,3,4,7,8,9,10,11-octahydro-[1]benzothieno[2′,3′: 4,5]pyrimido-[1,2-a]azepin-13(1H)-one] | -1% | 1.3% | 14.9% | 25.8% | 13.1% | 10.1%
6 | O=CC1=C([S+]([O-])c2ccccc2)c2sc3nc4n(c(=O)c3c2CC1)CCCCC4 (stereo not drawn) [Compound 30, 1,2,7,8,9,10,11,13-Octahydro-13-oxo-4-(phenylsulfinyl)-[1]benzothieno[2′,3′: 4,5]-pyrimido-[1,2-a]azepine-3-carbaldehyde] | 23.1% | 49% | 11.1% | 31.2% | 12.8% | 24.8%
7 | O=C(O)C1=C(Cl)c2sc3nc4n(c(=O)c3c2CC1)CCCCC4 [Compound 31, 4-Chloro-1,2,7,8,9, 10,11,13-octahydro-13-oxo-[1]benzothieno[2′,3′: 4,5]pyrimido[1,2-a]azepine-3-carboxylic acid] | 2.1% | 6.8% | -6.4% | -3.9% | -0.2% | 9.3%
8 | O=c1c2c3c(sc2nc2n1CCC(CO)CC2)CCCC3 (stereo not drawn) [Compound 35, 9-(Hydroxymethyl)-2,3,4,7,8,9,10,11-octahydro-[1]benzothieno[2′,3′: 4,5]pyrimido[1,2-a]azepin-13(1H)-one] | 4.8% | 22.4% | 16.2% | 23.4% | 15.8% | 27.7%

The next lines start with the values.

Row | inhibition at 1 µM [1] | inhibition at 10 µM [1] | inhibition at 1 µM [2] | inhibition at 10 µM [2] | inhibition at 1 µM [3] | inhibition at 10 µM [3] | Compound
9 | 10.9% | 33.5% | 20% | 87.3% | 13.1% | 32.9% | CCOC(=O)C1CCc2nc3sc4c(c3c(=O)n2CC1)CCC(C=O)=C4Cl (stereo not drawn) [Compound 21, 4-Chloro-3-formyl-1,2,7,8,9,10,11,13-octahydro-13-oxo-[1]benzothieno[2′,3′: 4,5]pyrimido[1,2-a]azepine-9-carboxylic acid ethyl ester]
10 | 24.3% | 46.5% | 25.5% | 100% | 6.8% | 16.1% | CCCSC1=C(C=O)CCc2c1sc1nc3n(c(=O)c21)CCC(C(=O)OCC)CC3 (stereo not drawn) [Compound 22, 3-Formyl-1,2,7,8,9,10, 11,13-octahydro-13-oxo-4-(propylthio)-[1]benzothieno [2′,3′: 4,5]pyrimido[1,2-a]azepine-9-carboxylic acid ethyl ester]
11 | 24.9% | 32.3% | 18% | 59.6% | 3.1% | 19.3% | COC(=O)C1CCc2nc3sc4c(c3c(=O)n2CC1)CCC(C=O)=C4OC (stereo not drawn) [Compound 24, 3-Formyl-4-methoxy-1,2,7,8,9,10,11,13-octahydro-13-oxo-[1]benzothieno[2′,3′: 4,5]pyrimido [1,2-a]azepine-9-carboxylic acid methyl ester]
12 | 6.4% | -0.8% | -2.1% | 0.3% | 15.1% | 16.4% | O=C1CCCc2c1sc1nc3ccccn3c(=O)c21 [Compound 26, 2,3-Dihydro-12H-[l]benzothieno[2,3-d]pyrido[1,2-a]pyrimidin-4, 12(1H)-dione]
